Each block holds one molecule with its values, some of them ahead of it.
Key:
yMLH1-yPMS1 = test system: yMLH1-yPMS1; parameters: method as in Torres et al. [100]; details: 25mer yeast peptide, molar ratio 0-250-500-1000 to yMLH1-PMS1, MLH1-PMS2 35 nM, 1 mM Mn2+; ref Torres et al. [100]; cited from earlier work
MLH1-ΔConMot-PMS2 = target: T1, MLH1-ΔConMot-PMS2 (Homo sapiens, UniProt P40692+P54278, DEL377-396); experiment: DNA mismatch repair (MMR) complementation assay with peptide, MLH1-ΔConMot variant; assay type: biochemical
T1 construct: The pcDNA3 expression vector containing the entire open reading frame of human MLH1; expressed in transfected cells; host or cells: HEK293T (MLH1-deficient), transiently co-transfected
T1 sequence (P40692 with tags, fused parts or gaps DEL377-396): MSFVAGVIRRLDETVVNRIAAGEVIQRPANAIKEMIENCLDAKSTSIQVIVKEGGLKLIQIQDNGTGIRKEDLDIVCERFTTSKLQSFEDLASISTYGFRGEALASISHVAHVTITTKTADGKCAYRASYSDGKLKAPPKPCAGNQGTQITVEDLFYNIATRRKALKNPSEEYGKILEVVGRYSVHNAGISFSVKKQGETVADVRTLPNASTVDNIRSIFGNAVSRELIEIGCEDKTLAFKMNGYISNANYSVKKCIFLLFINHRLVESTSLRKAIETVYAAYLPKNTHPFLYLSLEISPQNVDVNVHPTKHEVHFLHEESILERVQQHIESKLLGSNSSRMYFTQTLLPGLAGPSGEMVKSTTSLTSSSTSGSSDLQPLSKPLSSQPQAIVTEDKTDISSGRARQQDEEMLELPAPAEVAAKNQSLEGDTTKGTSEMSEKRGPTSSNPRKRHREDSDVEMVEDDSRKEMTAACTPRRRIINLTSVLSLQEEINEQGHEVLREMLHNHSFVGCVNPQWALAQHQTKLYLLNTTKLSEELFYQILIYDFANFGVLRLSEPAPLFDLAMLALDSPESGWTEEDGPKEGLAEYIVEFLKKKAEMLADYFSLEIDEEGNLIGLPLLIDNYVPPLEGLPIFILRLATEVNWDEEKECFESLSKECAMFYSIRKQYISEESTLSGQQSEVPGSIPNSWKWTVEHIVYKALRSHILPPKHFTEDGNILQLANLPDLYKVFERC
T1 sequence (P54278 1-862 partner): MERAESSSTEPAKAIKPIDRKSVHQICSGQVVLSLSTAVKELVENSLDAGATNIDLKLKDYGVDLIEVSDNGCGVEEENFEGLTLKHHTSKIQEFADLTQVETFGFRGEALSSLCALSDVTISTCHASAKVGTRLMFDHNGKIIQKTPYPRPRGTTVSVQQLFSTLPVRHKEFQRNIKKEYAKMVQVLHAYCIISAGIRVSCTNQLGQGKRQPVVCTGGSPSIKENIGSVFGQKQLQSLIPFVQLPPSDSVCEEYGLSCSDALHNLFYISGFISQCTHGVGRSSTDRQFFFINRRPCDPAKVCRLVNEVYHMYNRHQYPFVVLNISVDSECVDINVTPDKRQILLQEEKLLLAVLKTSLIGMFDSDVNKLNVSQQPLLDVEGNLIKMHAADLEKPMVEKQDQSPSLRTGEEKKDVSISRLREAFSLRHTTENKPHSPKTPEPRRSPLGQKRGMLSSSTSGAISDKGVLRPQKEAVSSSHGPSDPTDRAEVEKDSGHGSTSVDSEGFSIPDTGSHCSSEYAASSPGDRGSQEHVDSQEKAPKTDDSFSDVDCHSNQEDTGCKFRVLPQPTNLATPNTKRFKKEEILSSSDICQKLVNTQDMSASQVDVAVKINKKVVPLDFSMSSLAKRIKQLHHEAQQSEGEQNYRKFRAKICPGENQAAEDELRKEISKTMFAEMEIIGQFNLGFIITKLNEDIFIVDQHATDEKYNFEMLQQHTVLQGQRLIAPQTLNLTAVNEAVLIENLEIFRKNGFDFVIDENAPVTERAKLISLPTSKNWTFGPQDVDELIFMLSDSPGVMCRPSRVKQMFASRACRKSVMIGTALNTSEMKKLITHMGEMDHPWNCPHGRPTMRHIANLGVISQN
Procedure: Mismatch repair activity was assessed as described in detail before ([79],[81]) (Supplementary Figure S3). […] Mismatched DNA plasmid substrate (Supplementary Figure S3) prepared according to previously published procedures ([81–83]) was added, and reactions in a final volume of 25 μl were incubated at 37°C for 15 min. Repair efficiency was scored by purifying the mismatched DNA plasmid from the reaction and assessing the fraction of homoduplex sequence by restriction digestion of the mismatched site using EcoRV. The substrate was additionally linearized with AseI.
For complementation assays with peptide, the indicated peptide(s) were used at stock concentrations of 50 or 500 μM in HEPES–KOH 20 mM pH 7.6 and supplemented to the MMR reactions.
Figure 4. Reaction of DNA mismatch repair to addition of ConMot peptide. (A) Nuclear extract of MLH1-proficient HEK293 cells was used for performing the DNA mismatch repair reaction. Four reactions were undertaken, with two reactions supplemented with either 7.5 μM or 75 μM ConMot-32 peptide. A negative control reaction was performed by omitting the 37°C repair incubation. (B) MMR reactions were performed with nuclear extract of MLH1-deficient HEK293T cells supplemented with extract of cells transfected either with wildtype MLH1-PMS2 (positive control) or with MLH1-ΔConMot-PMS2. To these MMR reactions, different peptides were added at a concentration of 75 μM: A ConMot-32 peptide (A), a Scramble-32 peptide (B) in which the conserved ConMot sequence is scrambled, and a short ConMot-20 peptide (C) that only contains the twenty highly conserved ConMot residues. The peptide sequences are given below the gel image. (C) The concentration-dependence of the MMR-activating effect of the ConMot-32 peptide observed in (B) was measured over a concentration range from 1–75 μM. (D) Theoretical binding curves of a ligand (peptide) to a protein were calculated for dissociation constants (KD) of 1, 5 and 10 μM for a protein concentration as present for MLH1-PMS2 in the MMR assay reactions (see also Supplementary Figure S3). Into this diagram, the average MMR activities (and standard deviations) measured in >3 of the experiment exemplarily shown in C were introduced as bars at ConMot-32 peptide concentrations of 1, 2.5, 7.5, 18 and 75 μM.
Second, we used extract of the repair-deficient cell line HEK293T supplemented with either wildtype MutLα (MLH1-PMS2) or the ΔConMot deletion variant, corresponding to experiment shown in Figure 2B. In this experiment, we again added ConMot peptide.
We investigated the effect of the ConMot peptide more closely by titrating the required peptide concentrations for activation. We determined that the mismatch repair reactions performed in this study contained approximately 280 fmol MLH1 (Supplementary Figure S4A and B), which is in good agreement with previous quantifications of MLH1-PMS2 in cells and extracts ([96]). […] Dissociation constants (KD) for peptides to proteins are typically in the range of 1–10 μM ([97]). We compared the measured concentration-dependent MMR activities with theoretical binding curves of (peptide) ligands to (protein) substrates for KD values of 1, 5 and 10 μM (Supplementary Figure S4C) at the determined MLH1 concentration. […] It is therefore plausible that a binding reaction of the ConMot peptide (to a protein) underlies the restauration of MMR activity. […]
Deletion C on M ot (∆Co nMot) c.1129_1188del CTGCAGCCTCTGAGCAAA […]
Del et i on comp are (∆Compare) c.1221_1280del […] ACTGGACAGGGGTTTGCT
Scramble c.1147_1160delinsGAC ggtacgtTCCCGGGAACAGAAGCT atagtgtcCTGGTGGGCATAGACCT
p.(M383_D387delinsDTMVR) ACTATGGTAC G T TATC
ConMot hy bri d gcataTCTGCAGCCTCTGAGCAA acagg[…]
Supplementary Table 1: Analyzed variant inf ormation.
Variant descriptions confer to HGVS format and refer to the MLH1 reference cDNA (NM_000249.4) […]

[1] = target: MLH1-ΔConMot-PMS2 (MutLα heterodimer with the ConMot deletion variant of MLH1) (human) (UniProt P40692)

Molecule: KAKRQENKL VRI D ASQAKITSFLSS [25mer]
- effect of peptide on endonuclease activation of yMLH1-yPMS1 (yMLH1-yPMS1): inhibiting endonuclease activit y

- restoration of DNA mismatch repair activity of the ΔConMot variant (MLH1-ΔConMot-PMS2; peptide 75 μM (Figure 4B), HEK293T nuclear extract 50 μg + 5 μg transfected extract, 25 μl, 37°C, 15 min, EcoRV/AseI digestion, agarose gel): did not restore MMR activity
Molecule: SGSSDMVQFEKLKDRRSQDATYVAHLQPLSKP [Scramble-32]

- effect of 20mer-ConMot on MMR restauration by the 32mer-ConMot (MLH1-ΔConMot-PMS2; Figure 4B, peptides at 75 μM, combined peptides, 37°C, 15 min): did not affect MMR restauration
- effect of peptide on MMR (summary in Supplementary Table 2) (MLH1-ΔConMot-PMS2; molar ratio 0-860-2300-8600 to hMLH1-PMS2, Tris-HCl pH 7.5, 5 mM Mg2+, 1.5 mM ATP): inactive
Molecule: KVYAHQMVRTDSREQKLDAF [ConMot-20]

- KD read by comparing the concentration-dependent MMR restoration with theoretical binding curves of a peptide ligand to a protein at the determined MLH1 concentration [1]: 7.5 µM
Molecule: SGSSDKVYAHQMVRTDSREQKLDAFLQPLSK [ConMot-32 peptide (32-mer peptide containing the sequence of the MLH1-ConMot)]

Reference: article PMC10325900, “A conserved motif in the disordered linker of human MLH1 is vital for DNA mismatch repair and its function is diminished by a cancer family mutation” (Nucleic Acids Research, 2023)
